Usually IC50 stands for the concentration that inhibits the measured activity by half. A lower IC50 goes with greater potency in that assay.

Experiment [1] deals with PPAR-γ. Nature of the experiment: PPAR-γ expression by immunoblot, PC3. Particulars: PC3 cells, 24.2 μg/ml, serum-free media, 24 hours; preliminary data. The experiment is classed as cell-based, human. The procedure:
(§1) Peroxisome proliferator-activated receptors (PPAR) represent a family of steroid hormone receptors in a superfamily mainly involved with lipid metabolism. Recently, high levels of PPAR-γ were reportedly expressed in prostate cancer tumor and activation of PPAR-γ was associated with nonapoptotic cell death induced by some PPAR-γ ligands. […] We have examined the effects of 12-MTA on activation of PPAR-γ in DU145 and PC3 cells. Cells were treated with 24.2 μg/ml of 12-MTA in serum-free media. After 24 hours, cells were harvested and expression of PPAR-γ was detected by immunoblot with or without blocking peptide.

For experiment [2], the system named is DU145 cells. In words: MTT cytotoxicity assay, DU145. It is filed as cell-based. Particulars: Homo sapiens, DU-145. The procedure: (§2) The relative cytotoxic activity of 12-MTA against human tumor cells was measured by means of a MTT assay. Human cell lines, including H1299, PC3, K562, A549, DU145, and HL60 were used.
Experiment [3] deals with T1, 5-lipoxygenase (Homo sapiens, UniProt P09917).
T1 sequence (P09917 1-674): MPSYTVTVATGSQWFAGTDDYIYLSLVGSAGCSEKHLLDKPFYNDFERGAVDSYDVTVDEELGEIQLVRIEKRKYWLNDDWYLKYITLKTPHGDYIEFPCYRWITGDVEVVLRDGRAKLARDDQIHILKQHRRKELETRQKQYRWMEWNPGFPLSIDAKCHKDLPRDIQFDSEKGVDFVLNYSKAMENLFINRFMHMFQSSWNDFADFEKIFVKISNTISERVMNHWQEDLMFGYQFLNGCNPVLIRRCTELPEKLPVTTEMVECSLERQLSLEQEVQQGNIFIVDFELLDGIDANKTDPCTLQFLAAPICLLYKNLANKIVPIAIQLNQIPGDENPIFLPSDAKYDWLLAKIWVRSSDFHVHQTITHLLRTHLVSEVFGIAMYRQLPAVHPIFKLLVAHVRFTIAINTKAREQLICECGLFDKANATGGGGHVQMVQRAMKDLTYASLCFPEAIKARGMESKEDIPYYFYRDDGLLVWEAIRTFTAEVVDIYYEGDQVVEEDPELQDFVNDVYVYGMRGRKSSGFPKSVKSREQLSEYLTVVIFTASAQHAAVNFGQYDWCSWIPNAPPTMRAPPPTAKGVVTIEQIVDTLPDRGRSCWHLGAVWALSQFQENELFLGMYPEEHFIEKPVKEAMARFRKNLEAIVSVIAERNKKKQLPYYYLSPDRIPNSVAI
Nature of the experiment: Activity based fractionation, 5-HETE inhibition (UV 235 nm). It is filed as biochemical. Particulars: preparative TLC spot at 1:100 dilution. From the text: The method of isolation was by ‘activity based fractionation’ using 5- and 12-lipoxygenase inhibition as the guiding assay. Using chromatography, preparative HPLC and preparative TLC of the sea cucumber oil, and checking 5-HETE with detection with UV at 235 nm, one particular spot on the TLC inhibited 5-HETE by approximately 94% at a 1:100 dilution. (FIGS. 3 and 4) The effect of 12-MTA on 5-HETE inhibition was also concentration dependent. The identity of the particular inhibitory ‘spot’ from preparative TLC was later identified by GC/MS, MS and NMR analysis and was confirmed to be 12-methyltetradecanoic acid (12-MTA).

The test system of experiment [4] is 12-lipoxygenase. In words: Inhibition of 12-HETE production in RBL-1 cells (LC/MS/MS). It is filed as cell-based, rat. Particulars: 100 μg/mL. As to the method: (§3) 12-MTA in rat leukemia (RBL-1) cells were examined. Cells were treated with 12-MTA (5 to 100 μg/ml) for 5 minutes at 37° C. followed by addition of A23187 (1 mM) and arachidonic acid (125 μM). Then the eicosanoids were extracted with hexane:ethyl acetate and analyzed by Multiple Reaction Monitoring in a tandem mass spectrometer (LC/MS/MS). Among seven eicosanoid metabolites, including PGE2, LTB4, 5-, 8-, 11-, 12-, and 15-HETEs, reduced production of 5-HETE and LTB4 in 12-MTA treated cells was observed. […] The inhibitory activity of 12-MTA on production of 5-HETE and LTB4 was concentration-dependent. This study further confirmed that 12-MTA is a 5-lipoxygenase inhibitor. 12-MTA, at 100 μg/mL, inhibited production of 12-HETE by 25% […].

In experiment [5] the test system is A549 cells. In words: MTT cytotoxicity assay, A549. The experiment is classed as cell-based. Particulars: Homo sapiens. The procedure:
as §2
In general terms: Formazan colour is commonly taken as a measure of viable cells.

Experiment [6] deals with PC3 cells. Nature of the experiment: DNA fragmentation analysis (propidium iodide staining and FACS). The experiment is classed as cell-based, human. Particulars: 18.15 μg/ml. The procedure:
To measure apoptosis directly, PC3 cells were treated with various concentrations of 12-MTA. Cell death by apoptosis was quantified by propidium iodide staining and FACS analysis. This technique measures cells with fragmented DNA, which appear as a population with hypodiploid DNA content (FIG. 2). 12-MTA induced concentration-dependent DNA fragmentation in PC3 cells.

The test system of experiment [7] is PC3 human prostate cancer cells. In words: Morphological changes by scanning electron microscopy. It is filed as cell-based. Particulars: 24.2 μg/ml in 0.1% DMSO, harvested 30', 1, 2, 4, 24 hours. The procedure:
PC3 cells (5×10^5) were plated in 35 mm dishes. After 24 hours, cells were treated with 24.2 μg/ml of 12-MTA in 0.1% DMSO. The cells were harvested at 30′, 1, 2, 4 and 24 hours. Harvested cells were fixed with 2% paraformaldehyde plus 3% glutformaldehyde in 0.1% sodium cacodylate buffer, pH 7.3. Morphological changes were measured by scanning electron microscopy (SEM).

The subject of experiment [8] is H1299 cells. In words: MTT cytotoxicity assay, H1299. It is filed as cell-based. Particulars: Homo sapiens, NCI-H1299. As to the method:
as §2

Experiment [9] has as its target T2, 5-lipoxygenase (Rattus norvegicus, UniProt P12527).
T2 construct: endogenous in cells; host or cells: RBL-1 (rat leukemia) cells
T2 sequence (P12527 1-673): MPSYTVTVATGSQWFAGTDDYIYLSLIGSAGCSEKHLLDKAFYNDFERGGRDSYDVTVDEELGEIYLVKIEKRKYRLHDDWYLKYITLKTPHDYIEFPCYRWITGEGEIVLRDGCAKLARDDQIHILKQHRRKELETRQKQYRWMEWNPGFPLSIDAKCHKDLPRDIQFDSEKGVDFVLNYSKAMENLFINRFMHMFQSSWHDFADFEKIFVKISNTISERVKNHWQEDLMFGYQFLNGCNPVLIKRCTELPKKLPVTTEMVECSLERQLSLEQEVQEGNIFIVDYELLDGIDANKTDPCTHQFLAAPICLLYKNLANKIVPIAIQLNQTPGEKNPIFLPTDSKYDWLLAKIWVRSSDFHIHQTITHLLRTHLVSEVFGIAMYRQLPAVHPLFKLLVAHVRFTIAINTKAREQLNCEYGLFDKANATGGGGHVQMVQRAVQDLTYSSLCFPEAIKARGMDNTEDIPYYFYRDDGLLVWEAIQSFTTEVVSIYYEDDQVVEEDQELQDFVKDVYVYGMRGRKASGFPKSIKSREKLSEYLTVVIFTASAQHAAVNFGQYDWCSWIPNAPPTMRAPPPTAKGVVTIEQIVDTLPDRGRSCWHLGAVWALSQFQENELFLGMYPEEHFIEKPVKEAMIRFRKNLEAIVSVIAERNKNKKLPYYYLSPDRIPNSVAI
In words: Inhibition of 5-lipoxygenase activity (5-HETE and LTB4 production, LC/MS/MS). The experiment is classed as cell-based. Particulars: RBL-1 cells, 5 minutes at 37° C., then A23187 and arachidonic acid. The procedure:
as §3

Experiment [10] deals with HL60 cells. In words: MTT cytotoxicity assay, HL60. It is filed as cell-based. Particulars: Homo sapiens, HL-60. As to the method:
as §2

In experiment [11] the test system is PPAR-γ. Nature of the experiment: PPAR-γ expression by immunoblot, DU145. The experiment is classed as cell-based, human. Particulars: DU145 cells, 24.2 μg/ml, serum-free media, 24 hours; preliminary data. As to the method:
as §1

Experiment [12] relates to K562 cells. Nature of the experiment: MTT cytotoxicity assay, K562. The experiment is classed as cell-based. Particulars: Homo sapiens. The procedure: as §2
The subject of experiment [13] is caspase 3 in PC3 cells. In words: Caspase 3 activation and PARP cleavage. The experiment is classed as cell-based, human. Particulars: 24.2 μg/ml, 24 and 48 hours. As to the method: Caspases are a family of aspartate-specific cysteine proteases that are required for apoptosis. The most familiar substrate of caspase is PARP, which is involved with regulation of chromatin structure during differentiation and DNA repair. The native PARP protein (Mr, 116,000) is cleaved by caspase 3 or caspase 7 to yield lower molecular weight fragments. To confirm that the induction of apoptosis by 12-MTA involves activation of caspases, we treated PC3 cells with 24.2 μg/ml of 12-MTA and measured PARP cleavage and caspase 3 activation at 24 and 48 hours.

The test system of experiment [14] is PC3 cells. In words: MTT cytotoxicity assay, PC3. It is filed as cell-based. Particulars: Homo sapiens, PC-3. As to the method: as §2

Values after ≈ are worked out from the molar mass of the structure shown.

For the molecule `CCC(C)CCCCCCCCCCC(=O)O` (stereo not drawn) [12-MTA, 12-methyltetradecanoic acid], the “expression of PPAR-γ” value in experiment [1] and in [11] was “only slightly increased” throughout. Further, the half-maximal inhibitory concentration (IC50) in [2] is 30.2 µg/mL (≈ 125 µM); in experiment [5] it was 21.8 µg/mL (≈ 89.9 µM); in [8], 18.1 µg/mL (≈ 74.9 µM); in experiment [9], around 103 µM; in [10], 20.6 µg/mL (≈ 84.9 µM); in experiment [12], 33.1 µg/mL (≈ 137 µM). The molecule also gave an IC50 in [14] of 30.1 µg/mL (≈ 124 µM). For the same molecule, the “inhibition of 5-HETE” value in [3] is “approximately 94%”. Further, the “inhibition of production of 12-HETE” value in experiment [4] is 25%. In experiment [6], the “percent of apoptotic cells (fragmented DNA)” value came out at 75%. In addition, the “Morphological (apoptotic) changes by SEM” value in [7] was “cells exhibited apoptotic changes after 1-hour of exposure”. Also, the PARP cleavage result in [13] is reported as “prominent PARP cleavage”. Besides, the “caspase 3 activation” value in experiment [13] is “can activate caspase 3”.

(Values after patent US6541519B2, “Methods and compositions for treating lipoxygenase-mediated disease states” (Coastside Bio Resources, priority 2000, dated 2003).)
